PMC3463507 (ChemMedChem, 2012)
Like-named read-outs stand apart in the source and are kept apart here.

Tests used:
BaDHPS [1] = biological target: T1, BaDHPS (Bacillus anthracis, UniProt Q81VW8); experiment: biochemical; type: biochemical; details: for inhibition at 250 µM: read-out: Enzyme Inhibition Activity% @250μM
BaDHPS [2] = biological target: T1, BaDHPS; type: binding; details: 25 °C, pH 7.6
BaDHPS [3] = biological target: T1, BaDHPS; experiment: biochemical; type: binding; details: for SPR kd: 25 °C; for kon: read-out: SPR ka

T1 sequence (Q81VW8 1-280): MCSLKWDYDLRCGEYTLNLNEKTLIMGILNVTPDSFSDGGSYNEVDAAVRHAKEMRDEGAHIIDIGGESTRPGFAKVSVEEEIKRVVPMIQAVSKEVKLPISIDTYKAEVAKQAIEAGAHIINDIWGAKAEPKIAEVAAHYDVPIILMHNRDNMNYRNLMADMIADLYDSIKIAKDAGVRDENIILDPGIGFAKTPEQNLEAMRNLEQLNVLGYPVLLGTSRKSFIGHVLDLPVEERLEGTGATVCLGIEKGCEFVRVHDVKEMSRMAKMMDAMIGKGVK

Row | SMILES | IC50 (BaDHPS [1]) | inhibition at 250 µM (BaDHPS [1]) [%] | ITC N (stoichiometry of the interaction) (BaDHPS [2]) | ITC ΔG (BaDHPS [2]) [kcal/mol] | ITC ΔH (BaDHPS [2]) [kcal/mol] | ITC −TΔS (BaDHPS [2]) [kcal/mol] | SPR kd (BaDHPS [3]) | kon (BaDHPS [3]) [M⁻¹ s⁻¹] | Kd (BaDHPS [3]; read-out: SPR KD) [nM] | Kd (BaDHPS [3]; read-out: SPR KD(eq)) [nM] | Kd (BaDHPS [3]; SPR KD) [nM] | Kd (BaDHPS [3]; SPR KD(eq)) [nM]
1 | CC(CC(=O)O)c1n[nH]c2nc(N)[nH]c(=O)c2c1=O (stereo not shown) [Compound 24, 3-(7-Amino-4,5-dioxo-1,4,5,6-tetrahydropyrimido[4,5-c]pyridazin-3-yl)butanoic acid] | 57000 nM | 75.8 | 0.8 | -8.6 | -7.5 | -1.1 | 3.39(1) × 10^−1 s^−1 | 643000 |  |  |  | 
2 | Nc1nc2[nH]nc(CCC(=O)O)c(=O)c2c(=O)[nH]1 [Compound 25, 3-(7-Amino-4,5-dioxo-1,4,5,6-tetrahydropyrimido[4,5-c]pyridazin-3-yl)propanoic acid] | 36000 nM | 91.8 | 0.7 | -8.94 | -10.4 | 1.46 | 3.14(1) × 10^−1 s^−1 | 442000 | 710 | 713 |  | 
3 | Cn1nc(C(=O)O)c(=O)c2c(=O)[nH]c(N)nc21 [Compound 5, 7-Amino-1-methyl-4,5-dioxo-1,4,5,6-tetrahydropyrimido[4,5-c]pyridazine-3-carboxylic acid] | no detectable IC50 value | 32.4 |  |  |  |  |  |  |  |  |  | 
4 | Cn1nc(CC(=O)O)c(=O)c2c(=O)[nH]c(N)nc21 [Compound 16, 2-(7-Amino-1-methyl-4,5-dioxo-1,4,5,6-tetrahydropyrimido[4,5-c]pyridazin-3-yl)acetic acid] | 32000 nM | 96 |  |  |  |  | 6.94(6) × 10^−2 s^−1 | 342000 |  |  | 203 | 190
5 | Nc1nc2[nH]nc(CC(=O)O)c(=O)c2c(=O)[nH]1 [Compound 23, 2-(7-Amino-4,5-dioxo-1,4,5,6-tetrahydropyrimido[4,5-c]pyridazin-3-yl)acetic acid] | 18000 nM | 91 |  |  |  |  | 4.35(3) × 10^−2 s^−1 | 419000 |  |  | 104 | 110
6 | CC(CC(=O)O)c1nn(C)c2nc(N)[nH]c(=O)c2c1=O (stereo not shown) [Compound 17, 3-(7-Amino-1-methyl-4,5-dioxo-1,4,5,6-tetrahydropyrimido[4,5-c]pyridazin-3-yl)butanoic acid] | 145000 nM | 52.5 |  |  |  |  |  |  |  |  |  | 
7 | Cn1nc(CCC(=O)O)c(=O)c2c(=O)[nH]c(N)nc21 [Compound 18, 3-(7-Amino-1-methyl-4,5-dioxo-1,4,5,6-tetrahydropyrimido[4,5-c]pyridazin-3-yl)propanoic acid] |  | 65 |  |  |  |  |  |  |  |  |  | 
8 | CC(C(=O)O)c1n[nH]c2nc(N)[nH]c(=O)c2c1=O (stereo not shown) [Compound 19, 2-(7-Amino-4,5-dioxo-1,4,5,6-tetrahydropyrimido[4,5-c]pyridazin-3-yl)propanoic acid] |  | 95.3 | 0.9 | -9.65 | -8.7 | -0.95 | 4.39(3) × 10^−2 s^−1 | 366000 |  |  | 120 | 123
9 | COC(=O)CCc1n[nH]c2nc(N)[nH]c(=O)c2c1=O [Compound 22, Methyl 3-(7-amino-4,5-dioxo-1,4,5,6-tetrahydropyrimido[4,5-c]pyridazin-3-yl)propanoate] | 260000 nM | 33 |  |  |  |  |  |  |  |  |  | 
